Test results published in US8288363B2, “Medicaments for anti-herpes virus treatments” (ASE & BIO, priority 2006, dated 2012).

Columns and labels:
[1] = tested on: HSV-1, HSV-1R, HSV-2 and HSV-2R; test: Action on the viral infection: vero cells pretreated before infection; assay type: cell-based, herpes simplex virus
Description: The abovementioned viral suspensions of HSV-1, HSV-1R, HSV-2 and HSV-2R, defined by an MOI of 0.01 ID50/cell for a cell concentration of 350,000 cells/ml, were tested.
Acyclovir and dextran sulphate used at concentrations comprised between 0.05 and 5 μg/ml were used as reference products in this series of experiments. PS3 concentrations of 0.125 to 1,250 μg/ml were used, and the experiments were carried out in 96-well microtitre plates.
To verify whether PS3 protects a cell culture when it is used before its infection by the abovementioned viral strains, the procedure was as follows.
Vero cells were seeded at a cell density of […] in 100 μl of MEM medium containing 8% FCS.
A solution of 50 μl of PS3 or the comparison product, that is to say acyclovir having a given concentration, was then added to each well filled with 50 μl of MEM medium with 8% FCS.
The microtitre plate containing the cells treated with PS3 or the reference product was than placed in an oven at 37° C. for 6, 12 or 24 hours. The cells were then washed with 100 μl of MEM medium in order to remove the PS3 or the reference product.
A volume of 50 μl of a viral suspension was then added to each well, as well as 50 μl of MEM medium with 8% FCS; and the plates were kept at 4° C. for 1 hour.
The infected cells were then placed in an oven at 37° C. for 48 or 72 hours.

[2] = tested on: HSV-1, HSV-1R, HSV-2 and HSV-2R; test: Virucidal action: viral suspensions treated before infection of vero cells; assay type: cell-based, herpes simplex virus
Description: To determine whether PS3 has a virucidal effect, the procedure was as follows.
Vero cells were seeded at a cell density of 3·10^4 cells/well of a microtitre plate in 100 μl of MEM medium containing 8% FCS for 24 hours before the test.
On the day of the test, 50 μl of each of the viral suspensions identified above were treated with 50 μl of PS3 or reference product (acyclovir) having a given concentration for one hour at 37° C.
An amount of 100 μl of the mixture of this viral suspension, to which PS3 or the reference product had been added, was introduced into each well of the microtitre plate. The plate was kept at 4° C. for one hour.
It is to be noted that controls of the growth of the cells and of the viruses were run simultaneously.
The plates containing the infected cells were then placed in an oven at 37° C. for 48 or 72 hours.
The virucidal effect of PS3 was evaluated by measurement of the EC50 values determined in accordance with the method described in Example 3.

[3] = tested on: HSV-1, HSV-1R, HSV-2 and HSV-2R; test: Action on the viral penetration; assay type: cell-based, herpes simplex virus
Description: To determine whether PS3 has an effect on the viral penetration, the procedure was as follows.
Vero cells were seeded at a cell density of 3.5·10^4 cells/well of a microtitre plate in 100 μl of MEM medium containing 8% FCS.
After 24 hours, the confluent cells were brought into contact with 50 μl of a viral suspension for 1 hour at 4° C.
The cell carpet was then incubated with various concentrations of PS3 (0.125-1,250 μg/ml) or reference product, in this case acyclovir ([…]), at 37° C. in order to facilitate penetration of the viruses.
After incubation times of 15, 30 and 60 minutes, the corresponding cells were washed with 100 μl of PBS and then treated for 1 minute with 0.5 mg/ml of proteinase K (Sigma) in solution in PBS in order to remove all the extracellular viruses which had not been adsorbed.
This treatment was stopped by addition of 1 mM of phenylmethylsulphonyl fluoride (Sigma) in solution in PBS containing 3% FCS.
The cells were then washed with 100 μl of PBS per well and cultured again at 37° C. in 200 μl of MEM medium supplemented with 8% FCS.
Controls of the growth of the cells and of the viruses were run simultaneously. After incubation for 48 hours, the effect of PS3 and of acyclovir on the penetration of the virus was measured using the neutral red method.

HSV-2R = test: Action on the viral adsorption (treatments A, B, C); assay type: cell-based, herpes simplex virus 2; settings: treatment C (present during and after infection), 72 hours
Description: (§1) To determine whether PS3 has an effect on the viral adsorption, the procedure was as follows.
(§2) Vero cells were seeded at a cell density of 3.5·10^4 cells/well of a 96-well microtitre plate in 100 μl of MEM medium containing 8% FCS 24 hours before the test. The viral suspensions of HSV-1, HSV-1R, HSV-2 and HSV-2R, defined by an MOI of 0.01 ID50/cell for a cell concentration of 350,000 cells/ml, were tested.
(§3) On the day of the test, the cells were subjected to three different treatments designated A, B and C.
(§4) According to treatment A, cells treated with 50 μl of PS3 or comparison product (acyclovir) of a given concentration were infected with 50 μl of one of the viral suspensions identified above for one hour at 4° C.
(§5) The infected cells were then washed with 100 μl of saline buffer in order to remove the PS3 or the reference product as well as the viral particles which had not been adsorbed by the cells.
(§6) After having filled each well with sufficient MEM medium containing 8% FCS to arrive at a volume of 200 μl, the cells were then placed in an oven at 37° C. for 72 hours. […]
(§7) For these 3 treatments, the inhibitory effect of PS3 and of the reference product (expressed in EC50) on the adsorption of the four abovementioned viral strains after 72 hours was evaluated by measurement of the EC50 values in accordance with the method described in Example 3.

HSV-2 = test: as above; assay type: cell-based, herpes simplex virus 2; settings: treatment C (present during and after infection), 72 hours
Description: as §1, §2, §3, §4, §5, §6, §7

[4] = non-resistant strains HSV-1 and HSV-2
[5] = strains HSV-1, HSV-2, HSV-1R, HSV-2R, cells pretreated 6, 12 or 24 hours, washed, then infected

Compound | Effect before infection [1, 4] | Effect before infection [1, 5] | Virucidal effect [2, 4] | Effect on penetration [3, 4] | Virucidal effect ([2]; strains HSV-1, HSV-2, HSV-1R, HSV-2R, viral suspension treated one hour at 37° C.) | EC50 (HSV-2R) [µg/mL] | EC50 (HSV-2) [µg/mL] | Effect on penetration ([3]; strains HSV-1, HSV-2, HSV-1R, HSV-2R)
Nc1nc2c(ncn2COCCO)c(=O)[nH]1 [Acyclovir, acyclovir, reference compound] | no | not protected | no | no | – | – | – | –
sulphated laminarin [PS3] | – | not protected and no | – | – | no virucidal effect and no | 0.30 | 0.24 | no antiviral activity on penetration and no
